The text below walks through data of PMC7412250, “Novel Chrysin-De-Allyl PAC-1 Hybrid Analogues as Anticancer Compounds: Design, Synthesis, and Biological Evaluation” (Molecules, 2020).

Assay [1] deals with MDA-MB-231 cells. Nature of the assay: Cell cycle analysis by PI flow cytometry. It counts as cell-based, human. The conditions noted are these: 24 h, vehicle 4.46%. On the procedure: MDA-MB-231 cells were plated into 6-well plates at 2.5 × 10^5 cells/well. […] Next, the cells were trypsinized with 0.05% trypsin, 2.21 mM EDTA, 1×, washed, counted, and resuspended in 1 mL of ice-cold PBS. The cells then were stained with propidium iodide (PI) dye and incubated for at least 15 min. The distribution of the cells in each cell cycle phase for the different concentrations was measured using a BD Accuri™ C6 flow cytometer from BD Biosciences (Becton-Dickinson, San Jose, CA, USA) and analyzed using FCS Express 5 plus De Novo software (Glendale, CA, USA).
In general terms: In flow cytometry, cells or beads pass a laser one at a time.

In assay [2] the test system is MDA-MB-231 cells. Nature of the assay: MitoTracker Red / Alexa Fluor 488 annexin V flow cytometry (mitochondrial membrane potential and apoptosis). The format is cell-based, human. The following applies: for Q2 % of cells (population of cells undergoing apoptosis, quadrant II): 24 h, MitoTracker Red / annexin V, 0 µM control 14.30% (4g), 14.78% (4i); for mitochondrial membrane potential (in words): incubation for 24 h. On the procedure:
MitoTracker Red and Alexa Fluor 488 annexin V kits for flow cytometry (Molecular Probes Inc., Invitrogen, Eugene, OR) were used to measure the mitochondrial membrane potential and apoptosis in MDA-MB-231 cells. […] The cells were then […] using 0.05% trypsin, 2.21 mM EDTA, 1×, counted, and 4 μL of 10 μM of the MitoTracker Red working solution were added to 1 mL of the harvested cells. The cells were incubated at 37 °C with 5% CO2 for 30 min. The cells were washed once with PBS and resuspended in 100 μL of the annexin binding buffer. The cell suspensions were incubated with 5 μL of Alexa Fluor 488 annexin V for 15 min. This was followed by the addition of 400 μL of the annexin-binding buffer. Finally, flow cytometry was used to detect the fluorescence of stained cells at the following excitation/emission maxima: Alexa Fluor® 488 annexin V: 499/521 nm; MitoTracker® Red: 579/599 nm with the BD Accuri™ C6 flow cytometer from BD Biosciences (Becton-Dickinson, San Jose, CA, USA) and analyzed using FCS express 5 plus De Novo software (Glendale, CA, USA).

The test system of assay [3] is BT-20, U-251, and HCT116. The assay is described as follows: MTT cytotoxicity assay, three cancer cell lines stated together. The conditions noted are these: range across the three cancer cell lines, read-out: IC50 values, range over BT-20, U-251 and HCT116. It counts as cell-based. On the procedure: A panel of cancer cell lines, including breast (MDA-MB-231, BT20), brain (U251), and colon (HCT116), as well as a normal cell line (human mammary epithelial cells: HMECs), were grown as adherent monolayers in flasks with Dulbecco’s Modified Eagle Medium (DMEM), supplemented with 10% fetal bovine serum (FBS) and 1% penicillin and streptomycin in a humidified incubator with 5% CO2 at 37 °C.
The (3-(4,5-dimethylthiazol-2-yl)-2,5-diphenyltetrazolium bromide) (MTT) assay was used to determine the cytotoxicity of the 15 chrysin derivatives in the above-mentioned cell lines. Briefly, cells were harvested with 0.05% trypsin, 2.21 mM ethylenediaminetetraacetic acid (EDTA), 1× from Corning (Corning, NY, USA), and suspended at a final density of 5 × 10^3 cells/well. Cells were seeded (180 μL/well) into 96-well plates. Initially, four different concentrations of each compound were added to find the compounds with the greatest antiproliferative efficacy in the MDA-MB-231 cell line (0, 1, 10, and 100 μM). […] The absorbance was determined at 590 nm using a DTX 880 multimode detector (Beckman Coulter life sciences, IN, USA). The IC50 ± SD concentrations were calculated from three experiments performed in triplicate/duplicate. The IC50 values were calculated from the cell survival percentages obtained for each compound tested at different concentrations. […]
(Tetrazolium dyes change colour on reduction, which living cells bring about.)

By IC50 is commonly meant the point on the concentration scale where inhibition reaches its midpoint.

Consider `O=C(COc1cc(O)c2c(=O)cc(-c3ccccc3)oc2c1)N/N=C/c1ccc(O)cc1O` [Compound 4g, (E,Z)-N’-(2,4-Dihydroxybenzylidene)-2-((5-hydroxy-4-oxo-2-phenyl-4H-chromen-7-yl)oxy)acetohydrazide], for which the “% of cells in G2 phase” value in assay [1] (5 µM) is 59.12%; in assay [1] (10 µM) it was 54.13%. Further, the “Q2 % of cells (population of cells undergoing apoptosis, quadrant II)” value was found to be 26.56% in assay [2] (5 µM) and 58.05% in assay [2] (10 µM). In addition, the “mitochondrial membrane potential (in words)” value in assay [2] is listed as “significant loss of the mitochondrial membrane potential”.

Take `O=C(COc1cc(O)c2c(=O)cc(-c3ccccc3)oc2c1)N/N=C/c1ccc(O)c(O)c1O` [Compound 4i, (E,Z)-2-((5-Hydroxy-4-oxo-2-phenyl-4H-chromen-7-yl)oxy)-N’-(2,3,4-trihydroxybenzylidene)acetohydrazide]: the IC50 in assay [3] lay in the range of 10 to 25 µM. The “Q2 % of cells (population of cells undergoing apoptosis, quadrant II)” value in assay [2] (5 µM) is listed as 32.25%; in assay [2] (10 µM), 42.56%. In addition, the “mitochondrial membrane potential (in words)” value in assay [2] was “significant loss of the mitochondrial membrane potential”.
